Assays:
PKAα = biological target: T1, PKAα (Homo sapiens, UniProt P17612); test: FABS-NMR screening (3-FABS, 19F-labelled AKTide-like substrate) on PKA; type: biochemical; settings: 25 nM protein, 30 µM substrate, 150 µM ATP
T1 construct: polyHis; made in house; host or cells: E. coli
Protocol: The biochemical functional NMR screening on the proteins kinase AKT-1 and PKA was performed using the 3-FABS (3-Fluorine Atoms for Biochemical Screening) technique developed by C. Dalvit and the NMR group in house (C. Dalvit et al 2003 J. Am. Chem. Soc. 125 (47): 14620).
The method require the use of a ^19F-labelled substrate. The same commercial peptide was used as substrate in both enzymatic reaction: the Tyr just before the phosphorilation site in the AKTide peptide was mutated in a 3-tryfluormethyl-Phe by Bachem.
The AKTide like peptide sequence is reported below: • H-Ala-Arg-Lys-Arg-Glu-Arg-Ala-F(3-CF3)-Ser-Phe-Gly-His-His-Ala-OH
The active human Ser-Thr protein kinase AKT-1 Full Length was expressed as GST fusion protein in insect cells and then the GST was cleaved with PreScission protease. The active cycled AMP-dependent human protein kinase A PKA was expressed as polyHis-tag protein in E.Coli and purified by affinity column.
Reactions were performed in an end point format in eppendorf of 0.5 ml using the buffer solution 50mM Tris, pH 7.5, 5mM MgCl2, 1mM DTT, 8% D2O and 0.001% Triton-X-100; the final volume was of 560 µl. The substrate and protein concentration were of 30 µM and 25 nM respectively. The reactions were performed using an ATP concentration of about 9 times its KM: 150 µM in the test with PKA and 1.5 mM in the AKT-1 experiments. A sample in absence of inhibitor was run as control in order to follow the ongoing of the reaction and it represents the 0% inhibition. Different concentration compound stock solutions in DMSOd6 were made in order to add the same amount of DMSOd6 in each sample: usually the compounds stock were of 0.03, 0.2, 2, and 10 mM. 0.56 µl of these solution was added in each sample in order to reach the final compounds concentration of 30 nM, 200 nM 2 µM and 10 µM respectively; 0.56 µl of DMSOd6 was added in the control too. The reactions were quenched after about 100/120 minutes with 10 mM of Staurosporine (Sigma code:S4400), transferred into the 5 mm NMR tube (Cortec code: NE-MP5-8) and put onto the Sample Management System (SMS) autosampler for automatic data collection. The spectra were recorded using the Varian Inova 600 MHz NMR spectrometer operating at a ^19F Larmor frequency of 564 MHz and using a 5mm probe with the inner coil tuned to ^19F and the outer coil tuned to H. The data were recorded without proton decoupling with a spectral width of 12000 Hz, an acquisition time of 0.8s and a relaxation delay of 2.8s. Chemical shifts are referenced to trifluoroacetic acid.
IC50 determination was achieved by measuring the substrate signal as a function of the inhibitor concentration using one of the formulas below. […] IC50 data were analyzed with non-linear least squares methods in the Origin 5.0 software package.

[1] = test system: S6 ribosomal protein phosphorylation in MCF7; test: Inhibition of AKT induced S6 ribosomal protein phosphorylation in MCF7 (immunofluorescence, ArrayScan); type: cell-based; settings: Homo sapiens, MCF-7 cells, 4 hour treatment at 37°C, anti-phospho-S6 (Ser 235/236), read-out: S6 phosphorylation (Ser235/236) in MCF7-cell IC50
Protocol: MCF-7 cells (ATCC# HTB-22) were seeded in 96-well poly-lysine coated clear- and flat-bottomed black plates (Matrix Technologies Inc., Hudson, NH, USA), in E-MEM medium (MEM+ Earle's BSS + 2 mM glutamine + 0.1 mM non-essential amino acids) containing 10% of FCS at a density of 7000 cells/well, and incubated overnight at 37°C, 5% CO2, 100% relative humidity. After this incubation, cells were treated with increasing compound doses for 4 hour at 37°C. Afterwards, cells were fixed with PBS/3.7% paraformaldehyde for 15 min at room temperature, wash twice with 200 µl/well D-PBS and permeabilize with a D-PBS solution containing 0.1% Triton X-100 (Sigma-Aldrich, St. Louis, MO, USA) and 0.1 % powder Milk for 15 minutes (staining solution). […] Fluorescence images in the DAPI and Cy5™ channels were automatically acquired, stored and analysed using a Cellomics ArrayScan™ IV instrument (Cellomics, Pittsburgh, USA); the Cellomics Cytotoxicity Algorithm was used to quantify cytoplasmic fluorescence associated with phospho-S6 (Cy5™ signal parameter: "Mean Lyso Mass-pH") for each cell in 10 fields/well, and eventually expressed as a mean population value. […]

## NC[C@H](Cc1ccccc1)NC(=O)C1=Cc2c[nH]c3nccc(c23)CC1 [Cpd. 1, N-[(1S)-2-amino-1-benzylethyl]-6,7-dihydro-2H-2,3-diazabenzo[cd]azulene-8-carboxamide]
PKAα
  IC50: 0.02 µM
[1]
  IC50: 13500 nM

## CC(=O)N1CC(C(=O)N[C@H](CN)Cc2ccccc2)=Cc2c[nH]c3nccc1c23 [Cpd. 3, 6-acetyl-N-[(1S)-2-amino-1-benzylethyl]-6,7-dihydro-2H-2,3,6-triazabenzo[cd]azulene-8-carboxamide]
PKAα
  IC50: 0.075 µM

## O=C(N[C@H](CN1CCCC1)c1ccccc1)C1=Cc2c[nH]c3nccc(c23)CC1 [Cpd. 6, N-[(1S)-1-phenyl-2-pyrrolidin-1-ylethyl]-6,7-dihydro-2H-2,3-diazabenzo[cd]azulene-8-carboxamide]
PKAα
  IC50: 0.062 µM
[1]
  IC50: 11500 nM

## NC[C@H](Cc1ccccc1)NC(=O)C1=Cc2c[nH]c3nccc(c23)NC1 [compound 2, N-[(1S)-2-amino-1-benzylethyl]-6,7-dihydro-2H-2,3,6-triazabenzo[cd]azulene-8-carboxamide]
PKAα
  IC50: 0.01 µM

Reference: EP2002836B1, “Cyclocondensed azaindoles active as kinase inhibitors” (Nerviano Medical Sciences S.r.l., priority 2007, dated 2008)
